US20240207299A1, “PYRROLOPYRIMIDINE NUCLEOSIDES FOR TREATING OR PREVENTING A SARS-COV-2 INFECTION” (Chimerix, Inc., priority 2021, published 2024)
Where “and” joins values, the source holds several entries; their conditions need not be identical. Identical values can stand only once. Entries after “also recorded” stand apart in the source; their conditions may differ. Like-named read-outs stand apart in the source and are kept apart here.

Key:
SARS-CoV-2 [1] = conditions: MRC5 cells; cited from earlier work
[2] = test system: SARS-CoV-2 strain USA-WA1 2020 (nLuc reporter); assay: microbe, parasite or virus in culture; assay type: cell-based
[3] = Cytotoxicity without virus, neutral red, Vero E6 cells; assay type: cell-based; conditions: African green monkey; Neutral Red in Vero E6 cells; read-out: CC50: 50% cytotoxic concentration of compound without virus added
Description: Neutral red assay in Vero E6 cells: Compound dilutions were added to 96-well plates containing 80-100% confluent Vero E6 cells. Cells were incubated with compound for 1-2 hours and then infected with virus at a low MOI to achieve >80% cytopathic effect (CPE) within 5 days of incubation. On day 3 post-infection, CPE was quantitated by neutral red staining. Briefly cells were stained with neutral red for 2 hours, dye removed, and wells rinsed with PBS. The incorporated dye was extracted in Sorensen citrate buffer/ethanol (50:50) and absorbance measured on a spectrophotometer at 540 nm. Compound dilution that reduced virus CPE by 50% (EC50) was calculated along with cytotoxicity in the absence of virus infection (CC50).

[4] = Cytotoxicity, neutral red, Caco2 cells; assay type: cell-based; conditions: human, read-out: CC50: 50% cytotoxic concentration of compound without virus added
Description: Virus yield reduction assay in Caco-2 cells: The virus yield reduction (VYR) assay set up was similar to that described for the neutral red assay excepting Caco2 cells were used. On day 3 post-infection, cell culture supernatant from wells was collected and infectious virus determined by running a standard endpoint dilution CCID50 assay. Compound dilution that reduced virus yield by 1 log10 was calculated. After collection of cell culture supernatant from wells on day 3 post-infection, plates were stained as described in the neutral red assay to determine CC50 in Caco2 cells.

[5] = Tolerability of single inhaled aerosol dose in healthy BALB/c mice; assay type: in vivo; conditions: 5 mg aerosol single dose; dosing period and 8-hour post-dose period
Description: Tolerability and pharmacokinetics (PK) of a single dose of Compound 1 delivered as aerosol via nebulized liquid in a flow-past pie-chamber model to healthy BALB/c mice. Compound 1 and Compound 60 concentrations were evaluated in plasma and lung tissue were determined.
Nine female, 9-11 week old BALB/c mice were housed in 9 individual wedges of the inhalation device described above. The input holes of the remaining 3 wedges were taped off to maximize delivery to the 9 mice. A liquid formulation of 5 mg/mL Compound 1 (pH 6.0) was prepared immediately prior to dosing and dispensed into the compressor chamber. The entire contents (9 mL) of the formulation solution were aerosolized and delivered to the 9 mice over a period of 20-30 min. This method delivered 5 mg Compound 1 to each wedge containing a single mouse over the period of nebulization.
Mice were monitored for adverse clinical signs with special attention given to signs related to eye irritation.

SHC014 = assay: microbe, parasite or virus in culture; assay type: cell-based, bat-derived SARS-like coronavirus; conditions: HAE cells
WIV1 = assay: microbe, parasite or virus in culture; assay type: cell-based, bat-derived SARS-like coronavirus; conditions: HAE cells
[6] = test system: SARS-CoV-2 (USA-WA1/2020); assay: Neutral red CPE assay in Vero E6 cells; assay type: cell-based; conditions: for EC50: Severe acute respiratory syndrome coronavirus 2, Vero C1008, 72 h, read-out: EC50: 50% effective antiviral concentration
[7] = test system: Murine hepatitis virus (MHV) strain MHV-A59 (nLuc reporter); assay: microbe, parasite or virus in culture; assay type: cell-based; conditions: Murine coronavirus
SARS-CoV-2 [8] = assay: hACE2 transgenic mouse model of SARS-CoV-2 disease; assay type: in vivo, human ACE2 transgenic mouse; conditions: 50 mg/kg once per day intraperitoneal, Day 5
[9] = test system: SARS-CoV-2 (USA-WA1/2020); assay: microbe, parasite or virus in culture; assay type: cell-based; conditions: Severe acute respiratory syndrome coronavirus 2, Caco-2, 72 h, read-out: EC90: Calculated concentration to reduce virus yield by 1 log (90%) (converted)
uninfected cells = assay: Cytotoxicity in uninfected cells, Sigma TOX7 LDH release; assay type: cell-based; conditions: any concentration
Description: For each assay, percent inhibition was calculated by comparing luciferase activity in cells treated with compound to that in cells treated with vehicle (DMSO) control. Cells were treated with 2.5 μM remdesivir as a control where indicated. Cytotoxicity was measured in uninfected cells in parallel assays using the Sigma TOX7 assay for LDH release.

[10] = individual animals; for Plasma Compound 1 Concentration: 5 mg delivered dose, aerosol, single dose
[11] = Healthy volunteer Phase 1 study of oral Compound 1; conditions: healthy volunteers
in vivo = conditions: female, BALB/c, mouse, 5 mg
[12] = Genotoxicity / mitotoxicity
Oral GLP toxicology = conditions: rats/dogs
[13] = Severe acute respiratory syndrome-related coronavirus, HAE
[14] = 5 mg Compound 1 aerosol, 1 hr post-dose
[15] = 5 mg Compound 1 aerosol, 3 hr post-dose
[16] = Mean Plasma Compound 1 Concentration
[17] = Plasma Compound 1 Concentration

SMILES: CNc1nc(N)nc2c1ncn2[C@@H]1O[C@H](COP(=O)(N[C@@H](C)C(=O)OC(C)C)Oc2ccccc2)[C@@H](O)[C@@]1(C)F.CNc1nc(N)nc2c1ncn2[C@@H]1O[C@H](COP(=O)(N[C@@H](C)C(=O)OC(C)C)Oc2ccccc2)[C@@H](O)[C@@]1(C)F.O=S(=O)(O)O (stereo partly shown) [AT-527]
- antiviral activity against SARS-CoV-2 (SARS-CoV-2 [1]): lack of antiviral activity against SARS-CoV-2

SMILES: Cc1nc(N)c2c(C(N)=O)cn([C@@H]3O[C@H](CO)[C@@H](O)[C@H]3O)c2n1 [Compound 1, 4-amino-7-((2R,3R,4S,5R)-3,4-dihydroxy-5-(hydroxymethyl)tetrahydrofuran-2-yl)-2-methyl-7H-pyrrolo[2,3-d]pyrimidine-5-carboxamide]
- EC50 ([2]; HAE cells donor code yellow, 8 point dose-response curve, read-out: EC50): 940 nM
- EC50 ([2]; Severe acute respiratory syndrome coronavirus 2, Epithelial cell, read-out: average EC50, SARS-CoV-2 replication): 900 nM
- EC50 ([2]; Severe acute respiratory syndrome coronavirus 2, HAE, HAE cells donor code blue, 5 point dose-response curve, read-out: EC50): 550 nM
- EC50 ([2]; Severe acute respiratory syndrome coronavirus 2, HAE, HAE cells donor code purple, 5 point dose-response curve, read-out: EC50): 380 nM
- EC50 ([2]; Severe acute respiratory syndrome coronavirus 2, HAE, HAE cells donor code yellow, 4 point dose-response curve, read-out: EC50): 310 nM
- EC50 ([2]; Severe acute respiratory syndrome coronavirus 2, HAE, HAE cells donor code yellow, 5 point dose-response curve, read-out: EC50): 160 nM
- EC50 ([2]; Severe acute respiratory syndrome coronavirus 2, HAE, HAE cells donor code yellow, 7 point dose-response curve, read-out: EC50): 350 nM
- EC50 ([2]; Severe acute respiratory syndrome coronavirus 2, HAE, HAE cells donor code yellow, 8 point dose-response curve, read-out: EC50): 1100 nM
- EC50 ([2]; Severe acute respiratory syndrome coronavirus 2, HAE, mean of the HAE cell determinations, read-out: Mean SARS-CoV-2 EC50): 540 nM
- EC50 ([2]; mean of the HAE cell determinations, read-out: Mean SARS-CoV-2 EC50): 540 nM
- CC50 at 3 days [3]: > 100000 nM
- CC50 at 3 days [4]: > 100000 nM
- clinical signs of irritation or intolerability [5]: No clinical signs of irritation or intolerability
- EC50 (SHC014): 980 nM
- EC50 (SHC014; [13]): ~1000 nM
- EC50 (WIV1): 1010 nM
- EC50 (WIV1; [13]): ~1000 nM
- SI: Selectivity Index (CC50/EC50) ([6]; Neutral Red in Vero E6 cells): >1.8
- EC50 [6]: 56000 nM
- EC50 [7]: 380 nM
- average Cq, virus genome in lungs (qPCR) (SARS-CoV-2 [8]; started 4-6 h after challenge, vehicle Cq 23): 22
- effect on virus genome levels in lungs / efficacy (SARS-CoV-2 [8]): did not alter the virus genome levels detected in lungs; also recorded: not effective at inhibiting SARS-CoV-2
- Cq of one male mouse with lower than expected virus genome loads (SARS-CoV-2 [8]; likely failure of challenge or RNA recovery): 38
- EC90 [9]: 2100 nM
- Effect on cell viability (uninfected cells): No effect on cell viability was seen at any concentration
- Lung tissue Compound 1 concentration, Middle lobe [10, 14]: 1323 pmol/g and 988 pmol/g and 1061 pmol/g
- Lung tissue Compound 1 concentration, PC lobe [10, 14]: 986 pmol/g and 673 pmol/g and 430 pmol/g
- Lung tissue Compound 1 concentration, Superior lobe [10, 14]: 1867 pmol/g and 1219 pmol/g and 1212 pmol/g
- Lung tissue Compound 1 concentration, Inferior lobe [10, 15]: 209 pmol/g and 93 pmol/g and 110 pmol/g
- Lung tissue Compound 1 concentration, Left lobe [10, 15]: 106 pmol/g and 116 pmol/g and 140 pmol/g
- Lung tissue Compound 1 concentration, Superior lobe [10, 15]: 398 pmol/g and 167 pmol/g and 305 pmol/g
- Lung tissue Compound 1 concentration, Middle lobe ([10]; 5 mg Compound 1 aerosol, 8 hr post-dose): 73 pmol/g and 137 pmol/g and 99 pmol/g
- Plasma Compound 1 Concentration ([10]; 1 hr post-dose): 39.1 ng/mL and 53.7 ng/mL
- Plasma Compound 1 Concentration ([10]; 3 hr post-dose): 20.8 ng/mL and 14.8 ng/mL
- Plasma Compound 1 Concentration ([10]; 8 hr post-dose): 15.4 ng/mL and 12.6 ng/mL
- generally well-tolerated dose [11]: up to 2400 mg
- Kp (in vivo): ~20
- Kp at 8 h (in vivo): ~12
- concentration at 1 h (in vivo; [16]): 41.8 ng/mL
- concentration at 3 h (in vivo; [16]): 18 ng/mL
- concentration at 8 h (in vivo; [16]): 13.3 ng/mL
- concentration at 1 h (in vivo; [17]): 32.5 ng/mL
- concentration at 3 h (in vivo; [17]): 18.5 ng/mL
- concentration at 8 h (in vivo; [17]): 11.9 ng/mL
- genotoxicity / mitotoxicity [12]: not genotoxic or mitotoxic
- toxicology profile (Oral GLP toxicology): favorable toxicology profile

SMILES: NC(=O)c1cn([C@@H]2O[C@H](CO)[C@@H](O)[C@H]2O)c2ncnc(N)c12 [Sangivamycin, reference compound]
- CC50 at 3 days [3]: 10 nM
- CC50 at 3 days [4]: 120 nM
- SI: Selectivity Index (CC50/EC50) ([6]; Neutral Red in Vero E6 cells): 1.9
- EC50 ([6]; Neutral Red in Vero E6 cells, day 3 post-infection): 7 nM
- EC90 [9]: 120 nM
